# Measurements reported in DBAASP.
# Assays:
# Test in all cases: ≥ marks a high value that may be exact or a test limit, other limits are often not marked, values filed in µg/mL are converted to µM
# Escherichia coli UB1005 = system: Escherichia coli UB1005
# [1] = system: Staphylococcus aureus ATCC 25923
# Candida albicans = system: Candida albicans
# [2] = system: Staphylococcus epidermidis
# [3] = system: Pseudomonas aeruginosa H103
# [4] = system: Salmonella enterica serovar Typhimurium
# [5] = system: Pseudomonas aeruginosa PAO1
# Escherichia coli BL21 = system: Escherichia coli BL21
# [6] = system: Streptococcus pyogenes M1T1 5448
# [7] = system: Enterococcus faecalis ATCC 29212
# [8] = system: Staphylococcus aureus ATCC 29213
# [9] = system: Staphylococcus aureus NCTC 8325
# [10] = system: Salmonella enterica subsp. enterica serovar Enteritidis
# [11] = system: Candida albicans ATCC 90028
# [12] = system: Escherichia coli ATCC 25922
# [13] = system: Enterococcus faecalis NCTC 12697
# [14] = system: Candida albicans NCYC 1467
# [15] = system: Staphylococcus aureus NCTC 12493
# [16] = system: Staphylococcus aureus NCTC 10788
# [17] = system: Pseudomonas aeruginosa ATCC 27853
# [18] = system: Escherichia coli NCTC 10418
# [19] = system: Klebsiella pneumoniae ATCC 43816
smiles,measurement,setting,value
CC[C@H](C)[C@H](NC(=O)[C@H](CCCN=C(N)N)NC(=O)[C@H](CC(C)C)NC(=O)[C@H](CCC(N)=O)NC(=O)[C@@H](N)C(C)C)C(=O)N[C@@H](CCCN=C(N)N)C(=O)N[C@H](C(=O)N[C@@H](CCCN=C(N)N)C(=O)N[C@H](C(=O)N[C@H](C(=O)N[C@@H](CCCN=C(N)N)C(=O)N[C@@H](CCCCN)C(N)=O)[C@@H](C)CC)C(C)C)C(C)C [VQLRIRVRVIRK],MIC,Escherichia coli UB1005,1.95 µM
same,MIC,[1],7.81 µM
same,MIC,Candida albicans,3.91 µM
same,MIC,[2],1.04 µM
same,MIC,[3],3.91 µM
same,MIC,[4],3.91 µM
CC[C@H](C)[C@H](NC(=O)[C@H](CCCN=C(N)N)NC(=O)[C@H](C)NC(=O)[C@H](CCCCN)NC(=O)[C@H](CCCN=C(N)N)NC(=O)CNC(=O)[C@@H](NC(=O)[C@H](CCCCN)NC(=O)[C@H](CCCN=C(N)N)NC(=O)[C@@H](NC(=O)[C@H](CCC(=O)O)NC(=O)[C@H](CCCN=C(N)N)NC(=O)[C@H](CCCN=C(N)N)NC(=O)[C@H](CC(C)C)NC(=O)[C@H](Cc1ccc(O)cc1)NC(=O)[C@H](C)NC(=O)[C@H](CCCCN)NC(=O)[C@@H](NC(=O)[C@H](Cc1c[nH]c2ccccc12)NC(=O)[C@H](CCC(N)=O)NC(=O)[C@H](CCCN=C(N)N)NC(=O)CNC(=O)[C@H](C)N)[C@@H](C)CC)[C@@H](C)CC)C(C)C)C(=O)N[C@@H](C)C(=O)N[C@@H](Cc1c[nH]c2ccccc12)C(=O)O [AGRQWIKAYLRREIRKVGRKARIAW],MIC,[5],16 µM
same,MIC,Escherichia coli BL21,1 µM
same,MIC,[6],2 µM
CC[C@H](C)[C@H](NC(=O)[C@H](CCCN=C(N)N)NC(=O)[C@H](CCC(N)=O)NC(=O)[C@@H](NC(=O)[C@H](Cc1c[nH]c2ccccc12)NC(=O)[C@H](C)N)[C@@H](C)O)C(=O)N[C@@H](CCCCN)C(=O)N[C@@H](C)C(=O)N[C@@H](Cc1ccc(O)cc1)C(=O)N[C@@H](CC(C)C)C(=O)N[C@@H](CCCN=C(N)N)C(=O)N[C@@H](CCCN=C(N)N)C(=O)N[C@@H](CCC(=O)O)C(=O)N[C@H](C(=O)N[C@@H](CCCN=C(N)N)C(=O)N[C@@H](CCCCN)C(=O)N[C@@H](CCCN=C(N)N)C(=O)NCC(=O)N[C@@H](CCCN=C(N)N)C(=O)N[C@@H](CCCCN)C(=O)N[C@@H](C)C(=O)N[C@H](C(=O)N[C@H](C(=O)N[C@@H](C)C(=O)N[C@@H](Cc1c[nH]c2ccccc12)C(=O)O)[C@@H](C)CC)C(C)C)[C@@H](C)CC [AWTQRIKAYLRREIRKRGRKAVIAW],MIC,[5],8 µM
same,MIC,Escherichia coli BL21,2 µM
same,MIC,[6],2 µM
CC[C@H](C)[C@H](NC(=O)[C@H](CCCCN)NC(=O)[C@H](Cc1c[nH]c2ccccc12)NC(=O)[C@H](CCCNC(=N)N)NC(=O)[C@@H](N)CCCNC(=N)N)C(=O)N[C@H](C(=O)N[C@H](C(=O)N[C@H](C(=O)N[C@@H](CCCNC(=N)N)C(=O)N[C@@H](Cc1c[nH]c2ccccc12)C(=O)N[C@@H](CCCNC(=N)N)C(=O)N[C@@H](CCCNC(=N)N)C(=O)O)[C@@H](C)CC)C(C)C)C(C)C [RRWKIVVIRWRR],MIC,Escherichia coli UB1005,1.4 µM
same,MIC,[1],0.7 µM
same,MIC,Candida albicans,11.1 µM
same,MIC,[7],1.4 µM
same,MIC,[2],0.3 µM
same,MIC,[3],5.6 µM
same,MIC,[4],2.8 µM
CC[C@H](C)[C@H](NC(=O)[C@@H](NC(=O)[C@@H](NC(=O)[C@H](CCCN=C(N)N)NC(=O)[C@H](CCCN=C(N)N)NC(=O)[C@H](C)NC(=O)[C@H](CC(C)C)NC(=O)[C@@H](N)CCCN=C(N)N)C(C)C)C(C)C)C(=O)N[C@@H](CCCN=C(N)N)C(=O)N[C@H](C(=O)N[C@@H](C)C(=O)N[C@@H](CCCN=C(N)N)C(N)=O)C(C)C [RLARRVVIRVAR],MIC,Escherichia coli UB1005,10.9 µM
same,MIC,[1],43 µM
same,MIC,Candida albicans,85.3 µM
same,MIC,[7],85.3 µM
same,MIC,[2],10.9 µM
same,MIC,[3],≥ 43 µM
same,MIC,[4],21.2 µM
CC[C@H](C)[C@H](NC(=O)[C@H](CCCN=C(N)N)NC(=O)[C@H](CCC(N)=O)NC(=O)[C@@H](NC(=O)CNC(=O)[C@@H](N)Cc1c[nH]c2ccccc12)[C@@H](C)O)C(=O)N[C@@H](CCCCN)C(=O)N[C@@H](C)C(=O)N[C@@H](Cc1ccc(O)cc1)C(=O)N[C@@H](CC(C)C)C(=O)N[C@@H](CCCN=C(N)N)C(=O)N[C@@H](CCCN=C(N)N)C(=O)N[C@@H](CCC(=O)O)C(=O)N[C@H](C(=O)N[C@@H](CCCN=C(N)N)C(=O)N[C@@H](CCCCN)C(=O)N[C@@H](CCCN=C(N)N)C(=O)NCC(=O)N[C@@H](CCCN=C(N)N)C(=O)N[C@@H](CCCCN)C(=O)N[C@@H](C)C(=O)N[C@H](C(=O)N[C@H](C(=O)N[C@@H](C)C(=O)N[C@@H](Cc1c[nH]c2ccccc12)C(=O)O)[C@@H](C)CC)C(C)C)[C@@H](C)CC [WGTQRIKAYLRREIRKRGRKAVIAW],MIC,[5],8 µM
same,MIC,Escherichia coli BL21,2 µM
same,MIC,[6],0.5 µM
CC[C@H](C)[C@H](NC(=O)[C@H](CO)NC(=O)[C@@H]1CCCN1C(=O)[C@H](CC(C)C)NC(=O)[C@@H](NC(=O)[C@H](CCCCN)NC(=O)[C@H](C)NC(=O)[C@H](C)NC(=O)[C@H](CC(C)C)NC(=O)CNC(=O)[C@H](C)NC(=O)[C@@H](NC(=O)[C@@H](NC(=O)[C@@H]1CCCN1C(=O)[C@H](CC(C)C)NC(=O)[C@@H](N)Cc1ccccc1)C(C)C)C(C)C)C(C)C)C(=O)N[C@H](C(=O)N[C@H]1CSSC[C@@H](C(=O)O)NC(=O)[C@H](CCCCN)NC(=O)[C@H](CCCCN)NC(=O)[C@H]([C@@H](C)O)NC(=O)[C@H](C(C)C)NC(=O)[C@H](C)NC1=O)[C@@H](C)CC [FLPVVAGLAAKVLPSIICAVTKKC],MIC,[8],2.32 µM
same,MIC,[9],7 µM
same,MIC,[10],≥ 52.4 µM
CC[C@H](C)[C@H](N)C(=O)N1CCC[C@H]1C(=O)N[C@@H](Cc1cnc[nH]1)C(=O)N[C@@H](C)C(=O)N[C@H](C(=O)N[C@@H](CCCCN)C(=O)N[C@@H](C)C(=O)N[C@H](C(=O)N[C@@H](CO)C(=O)N[C@@H](CC(=O)O)C(=O)N[C@@H](CC(C)C)C(=O)N[C@H](C(N)=O)[C@@H](C)CC)[C@@H](C)CC)C(C)C [IPHAVKAISDLI],MIC,[9],≥ 200 µM
same,MIC,[11],≥ 200 µM
same,MIC,[12],> 200 µM
CC[C@H](C)[C@H](NC(=O)CNC(=O)[C@H](CO)NC(=O)[C@@H](NC(=O)[C@@H](NC(=O)[C@H](CCCCN)NC(=O)[C@H](C)NC(=O)[C@H](CC(C)C)NC(=O)[C@H](C)NC(=O)CNC(=O)[C@H](CC(C)C)NC(=O)[C@@H](N)Cc1ccccc1)[C@@H](C)CC)[C@@H](C)CC)C(=O)N[C@@H](Cc1ccccc1)C(N)=O [FLGALAKIISGIF],MIC,[9],4 µM
same,MIC,[12],> 100 µM
CC[C@H](C)[C@@H]1NC(=O)[C@H](C)NC(=O)[C@@H](NC(=O)[C@H](Cc2ccccc2)NC(=O)[C@@H](NC(=O)[C@H](CCCCN)NC(=O)[C@@H]2CCCN2C(=O)[C@H](CC(C)C)NC(=O)[C@@H](N)Cc2ccccc2)[C@@H](C)CC)CSSC[C@@H](C(=O)O)NC(=O)[C@H](CCCCN)NC(=O)[C@H](CCCCN)NC(=O)[C@H]([C@@H](C)O)NC1=O [FLPKIFCAITKKC],MIC,[13],≥ 512 µM
same,MIC,[14],≥ 512 µM
same,MIC,[15],≥ 256 µM
same,MIC,[16],≥ 256 µM
same,MIC,[17],> 512 µM
same,MIC,[18],≥ 256 µM
same,MIC,[19],≥ 512 µM
CC[C@H](C)[C@@H]1NC(=O)[C@H](C)NC(=O)[C@@H](NC(=O)[C@H](Cc2ccccc2)NC(=O)[C@@H](NC(=O)[C@H](CCCCN)NC(=O)[C@H](CO)NC(=O)[C@H](Cc2ccccc2)NC(=O)[C@@H](NC(=O)[C@H](CC(N)=O)NC(=O)[C@H](C)NC(=O)[C@H](C)NC(=O)[C@@H](NC(=O)[C@H](CO)NC(=O)[C@H](C)NC(=O)[C@@H](NC(=O)[C@@H](NC(=O)[C@@H]2CCCN2C(=O)[C@H](CC(C)C)NC(=O)[C@@H](N)Cc2ccccc2)[C@@H](C)CC)[C@@H](C)CC)C(C)C)C(C)C)[C@@H](C)CC)CSSC[C@@H](C(=O)O)NC(=O)[C@H](CCCCN)NC(=O)[C@H](CCCCN)NC(=O)[C@H](CO)NC1=O [FLPIIASVAANVFSKIFCAISKKC],MIC,[9],27 µM
same,MIC,[11],29 µM
same,MIC,[12],78 µM
